What was measured:
MMP2 = molecular target: T1, MMP2 (Homo sapiens, UniProt P08253); assay: MMP assay (fluorogenic substrate ES010); assay type: biochemical
T1 construct: purchased R&D Systems 902-MP
T1 sequence (P08253 110-660): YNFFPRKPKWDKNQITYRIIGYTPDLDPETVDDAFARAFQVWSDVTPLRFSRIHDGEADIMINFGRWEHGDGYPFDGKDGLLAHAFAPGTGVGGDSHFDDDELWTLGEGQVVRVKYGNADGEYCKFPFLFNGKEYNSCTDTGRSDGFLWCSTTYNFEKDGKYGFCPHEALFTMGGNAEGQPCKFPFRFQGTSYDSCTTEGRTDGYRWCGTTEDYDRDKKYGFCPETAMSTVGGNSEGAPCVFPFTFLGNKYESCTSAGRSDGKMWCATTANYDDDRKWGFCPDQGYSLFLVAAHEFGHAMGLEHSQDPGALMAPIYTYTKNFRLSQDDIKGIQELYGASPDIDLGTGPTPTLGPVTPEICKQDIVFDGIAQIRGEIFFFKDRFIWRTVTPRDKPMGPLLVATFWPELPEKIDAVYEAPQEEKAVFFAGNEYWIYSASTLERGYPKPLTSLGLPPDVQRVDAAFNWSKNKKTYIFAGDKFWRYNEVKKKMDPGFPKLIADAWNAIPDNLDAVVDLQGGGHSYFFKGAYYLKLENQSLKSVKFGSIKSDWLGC
Description: (§1) MMP-1, MMP-2, MMP-8, MMP-9, MMP-10, MMP-13, MMP-14, ADAM10, ADAM17 and Mca-KPLGL-Dpa-AR-NH2 fluorogenic peptide substrate were purchased from R&D Systems (cat # 901-MP, 902-MP, 908-MP, 911-MP, 910-MP, 511-MM, 918-MP, 936-AD, 930-ADB, and ES010, respectively). All common chemicals were purchased from Sigma. NFF449 was purchased from Tocris (cat# 1391) and actinonin was from Sigma-Aldrich, St. Louis, MO, USA (cat# 01809).
(§2) All assays followed the same general protocol. 5 µL of 2× enzyme solution (5 nM) in assay buffer (50 mM Tricine, 50 mM NaCl, 10 mM CaCl2, 0.05% Brij-35, pH 7.5) were added to solid-bottom black 384 plates (Nunc, cat# 264705). Next, test compounds and pharmacological controls were added to corresponding wells using a 384-pin tool device (V&P Scientific, San Diego). After 30 min incubation at RT, the reactions were started by addition of 5 µL of 2× solutions of MMP substrate (R&D Systems cat#: ES010, 20 µM). Reactions were incubated at RT for 1 h, after which the fluorescence was measured using the Synergy H4 multimode microplate reader (Biotek Instruments) (λexcitation = 324 nm, λemission = 390 nm). All compounds were tested in 10-point, 1:3 serial dilutions dose-response format starting with highest concentration of 100 µM. IC50 values were determined using non-linear regression analysis using the GraphPad Prism 8.0 suite of programs.

MMP9 = molecular target: T2, MMP9 (Homo sapiens, UniProt P14780); assay: MMP assay (fluorogenic substrate ES010); assay type: biochemical
T2 construct: purchased R&D Systems 911-MP
T2 sequence (P14780 94-707): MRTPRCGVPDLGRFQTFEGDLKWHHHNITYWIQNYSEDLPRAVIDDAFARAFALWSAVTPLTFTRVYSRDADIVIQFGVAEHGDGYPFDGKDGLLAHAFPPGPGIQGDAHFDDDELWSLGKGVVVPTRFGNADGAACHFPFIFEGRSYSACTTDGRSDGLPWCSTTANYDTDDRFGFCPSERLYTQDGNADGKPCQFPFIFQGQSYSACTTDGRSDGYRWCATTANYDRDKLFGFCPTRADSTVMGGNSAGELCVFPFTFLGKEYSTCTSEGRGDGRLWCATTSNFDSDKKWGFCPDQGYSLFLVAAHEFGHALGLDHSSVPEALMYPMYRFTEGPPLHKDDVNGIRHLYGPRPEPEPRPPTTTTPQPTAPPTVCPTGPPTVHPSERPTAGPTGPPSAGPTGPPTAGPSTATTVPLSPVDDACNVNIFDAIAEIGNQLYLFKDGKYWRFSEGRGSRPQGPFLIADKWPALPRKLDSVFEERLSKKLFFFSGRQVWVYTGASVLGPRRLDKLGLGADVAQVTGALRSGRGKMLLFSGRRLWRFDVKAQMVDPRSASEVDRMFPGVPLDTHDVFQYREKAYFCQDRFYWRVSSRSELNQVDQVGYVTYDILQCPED
Description: as §1, §2

MMP8 = molecular target: T3, MMP8 (Homo sapiens, UniProt P22894); assay: MMP assay (fluorogenic substrate ES010); assay type: biochemical
T3 construct: purchased R&D Systems 908-MP
T3 sequence (P22894 101-467): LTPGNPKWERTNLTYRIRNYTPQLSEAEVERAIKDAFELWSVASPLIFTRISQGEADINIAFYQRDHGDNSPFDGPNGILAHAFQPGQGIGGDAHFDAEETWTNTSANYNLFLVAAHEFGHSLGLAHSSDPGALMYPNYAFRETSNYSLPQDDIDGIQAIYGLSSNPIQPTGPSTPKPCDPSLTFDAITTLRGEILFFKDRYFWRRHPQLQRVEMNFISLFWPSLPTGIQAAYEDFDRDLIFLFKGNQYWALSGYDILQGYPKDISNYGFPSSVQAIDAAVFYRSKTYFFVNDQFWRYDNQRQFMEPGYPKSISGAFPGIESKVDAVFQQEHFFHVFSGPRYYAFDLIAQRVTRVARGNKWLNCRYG
Description: as §1, §2

MMP14 = molecular target: T4, MMP14 (Homo sapiens, UniProt P50281); assay: MMP assay (fluorogenic substrate ES010); assay type: biochemical
T4 construct: purchased R&D Systems 918-MP
Description: as §1, §2

MMP13 = molecular target: T5, MMP13 (Homo sapiens, UniProt P45452); assay: MMP assay (fluorogenic substrate ES010); assay type: biochemical
T5 construct: purchased R&D Systems 511-MM
Description: as §1, §2

[1] = test system: WM266-4 (skin melanoma), HEK293 (kidney), and BJ (skin fibroblasts) cells; assay: Cell viability, CellTiter Glo assay after 72 h treatment; assay type: cell-based
Description: Figure 6 Characterization of SR24717 for effects on cell viability and cytotoxicity. (A) Effect of SR24717 on viability of WM266-4 (skin melanoma), HEK293 (kidney), and BJ (skin fibroblasts) cells. CellTiter Glo™ assay (Promega) was used after 72 h treatment. (B) Effect of SR24717 on viability of HEK293 (kidney) and BJ (skin fibroblasts) cells. The CellTox Green™ assay (Promega) was used. All experiments performed as 10-point 3-fold concentration-response curves in triplicate.
Test compounds were solubilized in 100% DMSO and added to polypropylene 384-well plates (Greiner cat# 781280). 1250 of BJ skin fibroblasts or primary melanocytes were plated in 384-well plates in 8 µL of serum-free media (HybriCare for BT474, EMEM for HEK293). […] Luminescence was recorded using a Biotek Synergy H1 multimode microplate reader. Viability was expressed as a percentage relative to wells containing media only (0%) and wells containing cells treated with DMSO only (100%). Three parameters were calculated on a per-plate basis: (a) the signal-to-background ratio (S/B), (b) the coefficient for variation (CV; CV = (standard deviation/mean) × 100) for all compound test wells, and (c) the Z’-factor. IC50 values were calculated by fitting normalized data to sigmoidal log vs. response equation utilizing non-linear regression analysis from GraphPad Prism 8.

CCCCC[C@H](CC(=O)NO)C(=O)N[C@H](C(=O)N1CCC[C@H]1CO)C(C)C [Actinonin, actinonin, reference compound]
IC50 (MMP2): 0.09 µM
IC50 (MMP9): 0.1 ± 0.01 µM
IC50 (MMP8): 0.19 µM
IC50 (MMP14): > 1000 µM
IC50 (MMP13): 0.1 µM

COc1cc(OC)nc(SCc2nnc(SCC(=O)NO)n2-c2ccc(N(C)C)cc2)n1 [SR24717]
IC50 (MMP2): > 100 µM
IC50 (MMP9): > 100 µM
IC50 (MMP8): > 100 µM
IC50 (MMP14): > 100 µM
IC50 (MMP13): > 100 µM
concentration at which negative effects on viability were observed [1]: 100 µM
